Results published in US12509474B2, “Inhibitors of complement factors and uses thereof” (Annexon, Inc., priority 2020, dated 2025).
Counter-ions that a name gives are not always drawn.

The compounds below were run against T1, human C1s protein (Homo sapiens, UniProt P09871) (assay: C1s enzymatic assay (hydrolysis of YLGR-Rh110-dPro)). Conditions: substrate YLGR-Rh110-dPro 20 μM, 15 min pre-incubation, 60 min RT, fluorescence, read-out: hC1s pIC50 (converted).
T1 construct: A104
T1 sequence (P09871 16-688): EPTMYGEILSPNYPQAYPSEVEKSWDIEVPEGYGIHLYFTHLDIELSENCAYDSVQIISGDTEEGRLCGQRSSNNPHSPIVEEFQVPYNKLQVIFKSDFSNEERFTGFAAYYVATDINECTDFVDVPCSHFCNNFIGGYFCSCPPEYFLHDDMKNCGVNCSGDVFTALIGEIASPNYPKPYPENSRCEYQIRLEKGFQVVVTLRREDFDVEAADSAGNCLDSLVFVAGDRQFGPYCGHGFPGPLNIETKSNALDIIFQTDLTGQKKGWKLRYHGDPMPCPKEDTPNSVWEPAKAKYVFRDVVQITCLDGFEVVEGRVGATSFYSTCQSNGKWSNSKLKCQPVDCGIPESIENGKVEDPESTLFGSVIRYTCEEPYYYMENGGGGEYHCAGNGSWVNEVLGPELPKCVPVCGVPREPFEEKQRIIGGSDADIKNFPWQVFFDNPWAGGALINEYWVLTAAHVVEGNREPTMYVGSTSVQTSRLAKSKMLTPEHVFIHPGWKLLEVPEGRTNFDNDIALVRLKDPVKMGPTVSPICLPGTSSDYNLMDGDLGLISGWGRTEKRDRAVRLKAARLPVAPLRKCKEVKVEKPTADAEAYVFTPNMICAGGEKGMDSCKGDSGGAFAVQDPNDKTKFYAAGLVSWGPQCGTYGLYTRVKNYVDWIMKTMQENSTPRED
Assay type: biochemical
Protocol: Compound Testing in the C1s Enzymatic Assay
The enzyme cleaves the substrate with the release of Rh110 which is highly fluorescent. C1s inhibitors prevent the hydrolysis of the substrate thus resulting in a decrease of the signal.
On the day of the experiment 0.1 mg/mL BSA (Sigma, B4287) is added fresh to the buffer. The test item stock solutions are serially diluted 1:3 or 1:4 or 1:5 with DMSO, 11-point curves, in a 384-well compound plate. Nafamostat concentration curve is always included in the assay plate as a reference control.
The high controls are prepared dispensing in 0.25 μL DMSO in column 23, rows AH or AP and low controls with 0.25 μL of 0.1 M Nafamostat. […] The YLGR-Rh110-dPro substrate is prepared as 2× of the final assay concentration of 20 μM. 1/well of 2× enzyme solution is dispensed and pre-incubated for 15 min with the compounds. The enzymatic reaction is then started with 5 μL/well of the 2× substrate solution.
Cc1nnc(N)c2ccc(-c3cc(B(O)O)ccc3F)cc12 [Example 19, [3-(1-amino-4-methylphthalazin-6-yl)-4-fluorophenyl]boronic acid formic acid salt] showed an IC50 of 1.35 nM. Nc1nncc2cc(-c3cccc(B(O)O)c3)ccc12 [Example 1, [3-(1-aminophthalazine-6-yl)phenyl]boronic Acid] was tested, and the IC50 was 1.17 nM. Compound Nc1cnnc2cc(-c3ccc4c(c3)B(O)ON=C4)ccc12 [Example 156, 7-(4-aminocinnolin-7-yl)-1H-2,3,1-benzoxazonin-1-ol Formic Acid Salt] has an IC50 of 55 nM. With COc1cc(F)c(B(O)O)cc1-c1ccc2c(N)nnc(C)c2c1 [Example 25, [5-(1-amino-4-methylphthalazin-6-yl)-2-fluoro-4-methoxyphenyl]boronic Acid] the IC50 was 1.7 nM. For Cc1nnc(N)c2ccc(-c3cc(B(O)O)cnc3C(F)(F)F)cc12 [Example 84, [5-(1-amino-4-methylphthalazin-6-yl)-6-(trifluoromethyl)pyridin-3-yl]boronic Acid], the IC50 was 11.7 nM. COc1ccc(B(O)O)cc1-c1cc(C)c2c(N)cnnc2c1 [Example 67, [3-(4-amino-5-methylcinnolin-7-yl)-4-methoxyphenyl]boronic Acid] showed an IC50 of 17 nM. For CC(C)NC(=O)COc1ccc(B(O)O)cc1-c1ccc2c(N)cnnc2c1 [Example 76, [3-(4-aminocinnolin-7-yl)-4-[2-oxo-2-(propan-2-ylamino)ethoxy]phenyl]boronic Acid], the IC50 was 2.88 nM. Cc1nnc(N)c2ccc(-c3ccc4c(c3)B(O)OCC4(F)F)cc12 [Example 66, 6-(4,4-difluoro-1-hydroxy-3H-2,1-benzoxazonin-7-yl)-4-methylphthalazin-1-amine] showed an IC50 of 17.4 nM. C[C@@H]1C[C@@H](Oc2ccc(B(O)O)cc2-c2ccc3c(N)cnnc3c2)C[C@H](C)O1 [Example 121, [3-(4-aminocinnolin-7-yl)-4-{[(2R,4S,6S)-2,6-dimethyloxan-4-yl]oxy}phenyl]boronic Acid] was tested, and the IC50 was 4.9 nM. In the case of CC1Cc2ccc(-c3ccc4c(N)cnnc4c3)cc2B(O)O1 (single isomer, unassigned) [Example 95], the IC50 was 3.55 nM. For COc1c(-c2ccc3c(N)cnnc3c2)cc(B(O)O)cc1C1CCOCC1 [Example 58, [3-(4-aminocinnolin-7-yl)-4-methoxy-5-(oxan-4-yl)phenyl]boronic Acid], the IC50 was 3.39 nM. CC(F)(F)Oc1ccc(B(O)O)cc1-c1ccc2c(N)cnnc2c1 [Example 163, [3-(4-aminocinnolin-7-yl)-4-(1,1-difluoroethoxy)phenyl]boronic Acid Formic Acid Salt] gave an IC50 of 1.05 nM. In the case of Cc1nnc(N)c2ccc(-c3c(C(F)(F)F)ccc(B(O)O)c3F)cc12 [Example 68, [3-(1-amino-4-methylphthalazin-6-yl)-2-fluoro-4-(trifluoromethyl)phenyl]boronic Acid], the IC50 was 129 nM. COc1cc(Cl)c(B(O)O)cc1-c1ccc2c(N)nnc(C)c2c1 [Example 50, [5-(1-amino-4-methylphthalazin-6-yl)-2-chloro-4-methoxyphenyl]boronic Acid] was tested, and the IC50 was 0.891 nM. In the case of COc1c(-c2ccc3c(N)nnc(C)c3c2)cc(B(O)O)cc1C(F)(F)F [Example 49, [3-(1-amino-4-methylphthalazin-6-yl)-4-methoxy-5-(trifluoromethyl)phenyl]boronic Acid], the IC50 was 1.91 nM. Nc1cnnc2cc(-c3cc(B(O)O)ccc3OCC3CCCO3)ccc12 (centres unmarked) [Example 82, [3-(4-aminocinnolin-7-yl)-4-(oxolan-2-ylmethoxy)phenyl]boronic Acid] was tested, and the IC50 was 0.575 nM. Work on Cc1nnc(N)c2ccc(-c3cc(P(C)(C)=O)cc(B(O)O)c3F)cc12 [Example 47, [3-(1-amino-4-methylphthalazin-6-yl)-5-dimethylphosphoryl-2-fluorophenyl]boronic Acid Formic Acid Salt] yielded an IC50 of 75.9 nM. In the case of Cc1nnc(N)c2ccc(-c3cc(B(O)O)cc4ccoc34)cc12 [Example 104, [7-(1-amino-4-methylphthalazin-6-yl)-1-benzofuran-5-yl]boronic Acid], the IC50 was 0.851 nM. For Nc1cnnc2cc(-c3cc(B(O)O)ccc3OCCC3CCCO3)ccc12 (centres unmarked) [Example 110, [3-(4-aminocinnolin-7-yl)-4-[2-(oxolan-2-yl)ethoxy]phenyl]boronic Acid], the IC50 was 0.661 nM. With COc1cc(C)c(B(O)O)cc1-c1ccc2c(N)nnc(C)c2c1 [Example 28, [5-(1-amino-4-methylphthalazin-6-yl)-4-methoxy-2-methylphenyl]boronic Acid Formic Acid Salt] the IC50 was 1.78 nM. Work on COc1cc2c(cc1-c1ccc3c(N)nnc(C)c3c1)B(O)OCC2 [Example 32, 6-(1-hydroxy-6-methoxy-3,4-dihydro-2,1-benzoxazonin-7-yl)-4-methylphthalazin-1-amine Formic Acid Salt] yielded an IC50 of 4.68 nM. Compound Nc1cnnc2cc(-c3cc(B(O)O)c4occc4c3)ccc12 [Example 149, [5-(4-aminocinnolin-7-yl)-1-benzofuran-7-yl]boronic Acid Formic Acid Salt] has an IC50 of 0.603 nM. With Cc1nnc(N)c2ccc(-c3cnc(C(F)(F)F)c(B(O)O)c3)cc12 [Example 71, [5-(1-amino-4-methylphthalazin-6-yl)-2-(trifluoromethyl)pyridin-3-yl]boronic Acid] the IC50 was 2.95 nM. In the case of COc1ccc(B(O)O)cc1-c1ccc2c(N)nncc2c1 [Example 2, [3-(1-aminophthalazin-6-yl)-4-methoxyphenyl]boronic Acid Formic Acid Salt], the IC50 was 6.31 nM. Nc1cnnc2cc(-c3cc(B(O)O)ccc3N3CCNS3(=O)=O)ccc12 [Example 165, [3-(4-aminocinnolin-7-yl)-4-(1,1-dioxo-1,2,5-thiadiazolidin-2-yl)phenyl]boronic Acid] was tested, and the IC50 was 7.41 nM. COc1c(C)cc(B(O)O)cc1-c1ccc2c(N)nnc(C)c2c1 [Example 42, [3-(1-amino-4-methylphthalazin-6-yl)-4-methoxy-5-methylphenyl]boronic Acid Formic Acid Salt] was tested, and the IC50 was 1.38 nM. For Cc1nc2c(-c3ccc4c(N)nnc(C)c4c3)cc(B(O)O)cc2o1 [Example 125, [4-(1-amino-4-methylphthalazin-6-yl)-2-methyl-1,3-benzoxazol-6-yl]boronic Acid Formic Acid Salt], the IC50 was 3.24 nM. Compound Nc1cnnc2cc(-c3cc(B(O)O)ccc3Oc3ccc(F)cc3)ccc12 [Example 167, [3-(4-aminocinnolin-7-yl)-4-(4-fluorophenoxy)phenyl]boronic Acid Formic Acid Salt] has an IC50 of 1.66 nM. COc1cc(C(F)(F)F)c(B(O)O)cc1-c1ccc2c(N)cnnc2c1 [Example 83, [5-(4-aminocinnolin-7-yl)-4-methoxy-2-(trifluoromethyl)phenyl]boronic Acid] gave an IC50 of 4.57 nM. Work on Nc1cnnc2cc(-c3cc(B(O)O)ccc3OCCC3CCOC3)ccc12 (centres unmarked) [Example 112, [3-(4-aminocinnolin-7-yl)-4-[2-(oxolan-3-yl)ethoxy]phenyl]boronic Acid] yielded an IC50 of 0.776 nM. Work on Cc1nnc(N)c2ccc(-c3cc(B(O)O)ccc3NC(=O)CCC(C)C)cc12 [Example 61, [3-(1-amino-4-methylphthalazin-6-yl)-4-(4-methylpentanoylamino)phenyl]boronic Acid Formic Acid Salt] yielded an IC50 of 6.76 nM. Nc1cnnc2cc(-c3cc(B(O)O)ccc3OC[C@@H]3CC(F)(F)CN3)ccc12 [Example 79, [3-(4-aminocinnolin-7-yl)-4-[[(2S)-4,4-difluoropyrrolidin-2-yl]methoxy]phenyl]boronic acid] showed an IC50 of 0.891 nM.
